Laboratory results as given in ChEMBL document CHEMBL1201862, “PubChem BioAssay data set” (2004).
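Assay format: 96-well plates, 48-hour exposure. GI50 is the concentration that inhibits growth by half.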 Calls of active or inactive are those of the source. Cut-off read from the data, not from the text of the source: active = GI50 up to about 1.1 µM and inactive = higher.

Columns and labels:
Test in all cases: DTP human tumour cell line panel, 48 h
KM-20L2 = system: KM-20L2
CAKI-1 = system: CAKI-1
HL-60 = system: HL-60
NCI/ADR-RES = system: NCI/ADR-RES
MCF7 = system: MCF7
A549 = system: A549
K562 = system: K562
SK-OV-3 = system: SK-OV-3
SNB-75 = system: SNB-75
MOLT-4 = system: MOLT-4
HOP-18 = system: HOP-18
NCI-H226 = system: NCI-H226
DMS-114 = system: DMS-114
CCRF-CEM = system: CCRF-CEM
M19-MEL = system: M19-MEL
NCI-H23 = system: NCI-H23
SF-295 = system: SF-295
DMS-273 = system: DMS-273
786-0 = system: 786-0
SK-MEL-2 = system: SK-MEL-2
M14 = system: M14
HOP-62 = system: HOP-62
SR = system: SR
ACHN = system: ACHN
HOP-92 = system: HOP-92
SF-539 = system: SF-539
NCI-H460 = system: NCI-H460
A498 = system: A498
UACC-62 = system: UACC-62
OVCAR-4 = system: OVCAR-4
U-251 = system: U-251
SK-MEL-28 = system: SK-MEL-28
LXFL 529 = system: LXFL 529
RPMI-8226 = system: RPMI-8226
Malme-3M = system: Malme-3M
DLD-1 = system: DLD-1
SNB-78 = system: SNB-78
UO-31 = system: UO-31
SN12C = system: SN12C

Measured: GI50

O=C(O)/C=C/c1c[nH]c(=O)[nH]c1=O
inactive: KM-20L2 > 500 µM | CAKI-1 > 500 µM | HL-60 > 446 µM | NCI/ADR-RES > 344 µM | MCF7 > 500 µM | A549 > 500 µM | K562 > 500 µM | SK-OV-3 > 500 µM | SNB-75 > 500 µM | MOLT-4 > 281 µM | HOP-18 > 500 µM | NCI-H226 489 µM | DMS-114 > 500 µM | CCRF-CEM > 316 µM | M19-MEL > 500 µM | NCI-H23 > 500 µM | SF-295 > 232 µM | DMS-273 > 500 µM

CCCSc1nc(COC(=O)NC)c(COC(=O)NC)n1C
inactive: CAKI-1 32.8 µM | HL-60 29.4 µM | 786-0 69.5 µM | SK-MEL-2 53.2 µM | M14 > 100 µM | HOP-62 80.7 µM | K562 46.2 µM | SR 29.4 µM | SNB-75 49 µM | ACHN 23.9 µM | HOP-92 56 µM | MOLT-4 21.2 µM | SF-539 64.1 µM | NCI-H460 39.7 µM | A498 46 µM | UACC-62 80.2 µM | OVCAR-4 93.3 µM | U-251 98.2 µM | DMS-114 58.2 µM | SK-MEL-28 > 100 µM | LXFL 529 36.3 µM | RPMI-8226 25 µM | CCRF-CEM 29.6 µM | Malme-3M 86.5 µM | DLD-1 > 100 µM | M19-MEL 88.1 µM | SNB-78 63.2 µM | NCI-H23 54.2 µM | UO-31 57.1 µM | SN12C 88.7 µM | DMS-273 48.9 µM
